Results: US20230339952A1, “MACROCYCLIC HETEROCYCLES AND USES THEREOF” (Kumquat Biosciences Inc., priority 2022, published 2023)

What was measured:
[1] = system: NCI-H1975 (ATCC CRL-5908) cell line comprising an EGFR T790M L858R double mutation; assay: EGFR-SOS cellular inhibition assay (CellTiter-Glo cell proliferation); format: cell-based; conditions: Homo sapiens, 120 h; NCI-H1975 cell proliferation, approximately 5 days; read-out: H1975 IC50
Protocol: A CellTiter-Glo (CTG) luminescent based assay (Promega) is used to assess growth of the cells, as a measurement of the ability of the compounds herein to inhibit EGFR signaling in the cells. […] The day after plating, cells are treated with a dilution series (e.g., a 9 point 3-fold dilution series) of the compounds herein (e.g., approximately 125 μL final volume per well).

SOS1 = SOS1 (Homo sapiens (Human), UniProt Q07889); assay: Ras-SOS interaction assay (HTRF), K-Ras G13D utilized; format: binding; conditions: K-Ras G13D, read-out: SOS1 IC50
SOS1, sequence (Q07889 564-1049): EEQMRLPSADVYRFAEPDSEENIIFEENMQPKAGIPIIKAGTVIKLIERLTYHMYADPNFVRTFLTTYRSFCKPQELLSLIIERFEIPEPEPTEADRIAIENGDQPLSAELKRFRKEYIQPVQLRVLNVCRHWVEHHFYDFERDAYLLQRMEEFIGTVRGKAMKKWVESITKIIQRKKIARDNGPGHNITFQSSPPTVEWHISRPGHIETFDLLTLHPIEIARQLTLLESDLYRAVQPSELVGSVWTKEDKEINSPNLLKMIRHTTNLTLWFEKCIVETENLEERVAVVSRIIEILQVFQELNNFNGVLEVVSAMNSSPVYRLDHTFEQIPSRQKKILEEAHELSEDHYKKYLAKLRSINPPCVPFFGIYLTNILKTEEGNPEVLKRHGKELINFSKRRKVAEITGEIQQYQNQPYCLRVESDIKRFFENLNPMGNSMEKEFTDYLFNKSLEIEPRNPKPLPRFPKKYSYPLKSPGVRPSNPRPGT
From the text: For example, the equilibrium interaction of human SOS1 (hSOS1) with human wildtype Kras or K-Ras mutant (e.g., hK-Ras G12C mutant, or hK-Ras G12C) can be assessed as a proxy or an indication for a subject compound's ability to inhibit SOS. Detection of such interaction is achieved by measuring homogenous time-resolved fluorescence resonance energy transfer (HTRF) from (i) a fluorescence resonance energy transfer (FRET) donor (e.g., antiGST-Europium) that is bound to GST-tagged K-Ras G12C to (ii) a FRET acceptor (e.g., anti-6His-XL665) bound to a His-tagged hSOS1.
A Ras working solution is prepared in assay buffer containing typically 10 nM of the protein construct (e.g., GST-tagged hK-Ras G12C) and 2 nM of the FRET donor (e.g., antiGST-Eu(K) from Cisbio, France). A SOS1 working solution is prepared in assay buffer containing typically 10 nM of the protein construct (e.g., His-hSOS1) and 10 nM of the FRET acceptor (e.g., anti-6His-XL665 from Cisbio, France). An inhibitor control solution is prepared in assay buffer containing 10 nM of the FRET acceptor without the SOS1 protein.
A fixed reaction mixture with or without test compound is transferred into a 384-well plate. Ras working solution is added to all wells of the test plate. SOS1 working solution is added to all wells except for those that are subsequently filled with the inhibitor control solution. […] The ratiometric data (i.e., emission 2 divided by emission 1) is used to calculate IC50 values against SOS1 using GraphPad Prism (GraphPad software).

Row | Structure (SMILES) | IC50 [1] [nM] | IC50 (SOS1) [nM]
1 | C[C@H]1Nc2ncnc3c2cc(C2CCS(=O)(=O)CC2)c(=O)n3CCCCCCC(=O)N2CCC(CC2)C(F)(F)c2cccc1c2F [Compound 28, (4R)-6^6-(1,1-dioxidotetrahydro-2H-thiopyran-4-yl)-3^2,2,2-trifluoro-4-methyl-6^7,6^8-dihydro-5-aza-6(4,8)-pyrido[2,3-d]pyrimidina-1(4,1)-piperidina-3(1,3)-benzenacyclotridecaphane-6^7,13-dione] | < 1000 | < 100
2 | C[C@H]1Nc2ncnc3c2cc(C2CCS(=O)(=O)CC2)c(=O)n3CCCC(=O)NCCN2CCC(CC2)C(F)(F)c2cccc1c2 [Compound 30, (4R)-6^6-(1,1-dioxidotetrahydro-2H-thiopyran-4-yl)-2,2-difluoro-4-methyl-6^7,6^8-dihydro-5,11-diaza-6(4,8)-pyrido[2,3-d]pyrimidina-1(4,1)-piperidina-3(1,3)-benzenacyclotridecaphane-6^7,10-dione] | < 1000 | < 100
3 | C[C@H]1Nc2ncnc3c2cc(N2CCS(=O)(=O)CC2)c(=O)n3CCCCCCCN2CCC(CC2)C(F)(F)c2cccc1c2F [Compound 38, (4R)-6^6-(1,1-dioxidothiomorpholino)-3^2,2,2-trifluoro-4-methyl-6^7,6^8-dihydro-5-aza-6(4,8)-pyrido[2,3-d]pyrimidina-1(4,1)-piperidina-3(1,3)-benzenacyclotridecaphan-6^7-one] | < 1000 | < 100
4 | C[C@H]1Nc2ncnc3c2cc(C2CCS(=O)(=O)CC2)c(=O)n3Cc2cn(nn2)CCCCN2CCC(CC2)C(F)(F)c2cccc1c2 [Compound 40, (5R,Z)-3^6-(1,1-dioxidotetrahydro-2H-thiopyran-4-yl)-7,7-difluoro-5-methyl-3^7,3^8-dihydro-1^1H-4-aza-3(8,4)-pyrido[2,3-d]pyrimidina-8(4,1)-piperidina-1(4,1)-triazola-6(1,3)-benzenacyclododecaphan-3^7-one] | < 1000 | < 100
5 | C[C@H]1Nc2ncnc3c2cc(C2CCS(=O)(=O)CC2)c(=O)n3CCCN(C)C(=O)CCN2CCC(CC2)C(F)(F)c2cccc1c2 [Compound 41, (4R)-6^6-(1,1-dioxidotetrahydro-2H-thiopyran-4-yl)-2,2-difluoro-4,10-dimethyl-6^7,6^8-dihydro-5,10-diaza-6(4,8)-pyrido[2,3-d]pyrimidina-1(4,1)-piperidina-3(1,3)-benzenacyclotridecaphane-6^7,11-dione] | < 1000 | < 100
6 | Cc1nc2c3cc(C4(C#N)CC4)c(=O)n(c3n1)CCCCCCCOCC(F)(F)c1cccc(c1F)[C@@H](C)N2 [Compound 44, 1-((3R)-4^2,5,5-trifluoro-1^2,3-dimethyl-1^7-oxo-1^7,1^8-dihydro-7-oxa-2-aza-1(4,8)-pyrido[2,3-d]pyrimidina-4(1,3)-benzenacyclotetradecaphane-1^6-yl)cyclopropane-1-carbonitrile] | 1000 to 10000 | 100 to 5000
7 | C[C@H]1Nc2ncnc3c2cc(C2CCS(=O)(=O)CC2)c(=O)n3CC(=O)N(C)CCCCN2CCC(CC2)C(F)(F)c2cccc1c2 [Compound 46, (4R)-6^6-(1,1-dioxidotetrahydro-2H-thiopyran-4-yl)-2,2-difluoro-4,9-dimethyl-6^7,6^8-dihydro-5,9-diaza-6(4,8)-pyrido[2,3-d]pyrimidina-1(4,1)-piperidina-3(1,3)-benzenacyclotridecaphane-6^7,8-dione] | < 1000 | < 100

Now from value to compound:

Row | IC50 [1] [nM] | IC50 (SOS1) [nM] | Structure (SMILES)
8 | < 1000 | < 100 | C[C@H]1Nc2ncnc3c2cc(C2(C#N)CCS(=O)(=O)CC2)c(=O)n3CCCCCCN2CCC(CC2)CC(F)(F)c2cccc1c2F [Compound 23, 4-((3R)-4^2,5,5-trifluoro-3-methyl-1^7-oxo-1^7,1^8-dihydro-2-aza-1(4,8)-pyrido[2,3-d]pyrimidina-7(4,1)-piperidina-4(1,3)-benzenacyclotridecaphane-1^6-yl)tetrahydro-2H-thiopyran-4-carbonitrile 1,1-dioxide]
9 | < 1000 | < 100 | CC1CC/C=C\CCn2c(=O)c(C3(C#N)CC3)cc3c(ncnc32)N[C@H](C)c2cccc(c2F)C(F)(F)C2CCN1CC2 (stereo partly drawn) [Compound 24, 1-((4R,Z)-3^2,2,2-trifluoro-4,13-dimethyl-6^7-oxo-6^7,6^8-dihydro-5-aza-6(4,8)-pyrido[2,3-d]pyrimidina-1(4,1)-piperidina-3(1,3)-benzenacyclotridecaphan-9-en-6^6-yl)cyclopropane-1-carbonitrile]
10 | < 1000 | < 100 | C[C@H]1Nc2ncnc3c2cc(C2(C#N)CC2)c(=O)n3CCCC(=O)N(C)CCN2CCC(CC2)C(F)(F)c2cccc1c2 [Compound 27, 1-((4R)-2,2-difluoro-4,11-dimethyl-6^7,10-dioxo-6^7,6^8-dihydro-5,11-diaza-6(4,8)-pyrido[2,3-d]pyrimidina-1(4,1)-piperidina-3(1,3)-benzenacyclotridecaphane-6^6-yl)cyclopropane-1-carbonitrile]
11 | < 1000 | < 100 | CC1CCCCCCn2c(=O)c(C3(C#N)CC3)cc3c(ncnc32)N[C@H](C)c2cccc(c2F)C(F)(F)C2CCN1CC2 (stereo partly drawn) [Compound 34, 1-((4R)-3^2,2,2-trifluoro-4,13-dimethyl-6^7-oxo-6^7,6^8-dihydro-5-aza-6(4,8)-pyrido[2,3-d]pyrimidina-1(4,1)-piperidina-3(1,3)-benzenacyclotridecaphane-6^6-yl)cyclopropane-1-carbonitrile]
12 | < 1000 | < 100 | C[C@@H]1C(=O)NCCCCn2c(=O)c(C3(C#N)CC3)cc3c(ncnc32)N[C@H](C)c2cccc(c2)C(F)(F)C2CCN1CC2 [Compound 36, 1-((4R,13R)-2,2-difluoro-4,13-dimethyl-6^7,12-dioxo-6^7,6^8-dihydro-5,11-diaza-6(4,8)-pyrido[2,3-d]pyrimidina-1(4,1)-piperidina-3(1,3)-benzenacyclotridecaphane-6^6-yl)cyclopropane-1-carbonitrile]
13 | < 1000 | < 100 | C[C@H]1Nc2ncnc3c2cc(N2CCS(=O)(=O)CC2)c(=O)n3CCCCCCCN2CCC(CC2)C(F)(F)c2cccc1c2 [Compound 42, (4R)-6^6-(1,1-dioxidothiomorpholino)-2,2-difluoro-4-methyl-6^7,6^8-dihydro-5-aza-6(4,8)-pyrido[2,3-d]pyrimidina-1(4,1)-piperidina-3(1,3)-benzenacyclotridecaphan-6^7-one]
14 | < 1000 | < 100 | C[C@H]1Nc2ncnc3c2cc(C2(C#N)CC2)c(=O)n3CCCCCCCN2CCC(CC2(C)C)C(F)(F)c2cccc1c2 (stereo partly drawn) [Compound 43, 1-((4R)-2,2-difluoro-1^2,1^2,4-trimethyl-6^7-oxo-6^7,6^8-dihydro-5-aza-6(4,8)-pyrido[2,3-d]pyrimidina-1(4,1)-piperidina-3(1,3)-benzenacyclotridecaphane-6^6-yl)cyclopropane-1-carbonitrile]
15 | < 1000 | < 100 | C[C@H]1Nc2ncnc3c2cc(C2CCS(=O)(=O)CC2)c(=O)n3CCCCCCCCCN2CCC(CC2)C(F)(F)c2cccc1c2 [Compound 47, (4R)-6^6-(1,1-dioxidotetrahydro-2H-thiopyran-4-yl)-2,2-difluoro-4-methyl-6^7,6^8-dihydro-5-aza-6(4,8)-pyrido[2,3-d]pyrimidina-1(4,1)-piperidina-3(1,3)-benzenacyclopentadecaphan-6^7-one]
